Literature values as cited in paper PMC5096457 (Cell chemical biology, 2016).

Assays:
c-Kit = details: ref DiNitto et al., 2010
[1] = tested on: NIH 3T3 Src−/− cells overexpressing Src (Y529F); details: high micromolar concentrations; ref Georghiou et al., 2012

Row | Compound | fold increase in IC50 against activated kinase target (c-Kit) [fold] | global tyrosine phosphorylation [1]
1 | CCN(CC)CCNC(=O)c1c(C)[nH]c(/C=C2\C(=O)Nc3ccc(F)cc32)c1C [sunitinib] | 300 | –
2 | NC(=O)[C@@H]1CCCNC(=O)[C@H](Cc2ccc([N+](=O)[O-])cc2)NC(=O)[C@H](Cc2ccc(F)cc2)NC(=O)[C@H](CC2CCCCC2)NC(=O)/C=C/C(=O)N1 [MC25a] | – | decreased global tyrosine phosphorylation
